Consider 24 molecules from US8796256B2 (Janssen Pharmaceutica NV, priority 2010, dated 2014).

This assay deals with T1, ERR1 (also known as ERR-α or ERR-1) (Homo sapiens, UniProt P11474).
T1 sequence (P11474 193-421 limits assumed): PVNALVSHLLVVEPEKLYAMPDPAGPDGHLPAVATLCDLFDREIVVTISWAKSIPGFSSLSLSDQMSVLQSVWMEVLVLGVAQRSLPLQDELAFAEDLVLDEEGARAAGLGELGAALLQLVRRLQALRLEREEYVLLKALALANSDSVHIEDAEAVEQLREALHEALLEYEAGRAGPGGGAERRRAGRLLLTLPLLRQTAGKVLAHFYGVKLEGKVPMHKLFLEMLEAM
Nature of the assay: TR-FRET assay (disruption of co-activator peptide binding to ERR1 LBD). Type of assay: biochemical. The following applies: 6 nM 6His-ERR1LBD, 6 nM GST-SRC-2 peptide; average of 3 independent experiments. Summed up: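 Homogeneous TR-FRET measuring displacement of GST-hSRC2 co-activator peptide (6 nM) from His-tagged ERR1 LBD (6 nM), detected with α-GST Eu cryptate (30 nM) and α-His-XL665 (7.5 nM). Buffer 25 mM Tris pH 8, 2.5 mM Hepes, 20 mM KCl, 1 mM DTT, 0.05 mg/mL delipidated BSA; equilibration 4-18 h at 25° C. Hyperbolic dose-response fit, mean of 3 experiments.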
One may read the EC50 as the concentration giving half of the maximal effect. `COc1ccc(Cn2nc(C)c3cc(/C=C4\SC(=O)N(CCN5CCOCC5)C4=O)ccc32)c(C(F)(F)F)c1` [Compound 20, (5Z)-5-({1-[4-Methoxy-2-(trifluoromethyl)benzyl]-3-methyl-1H-indazol-5-yl}methylidene)-3-(2-morpholin-4-ylethyl)-1,3-thiazolidine-2,4-dione]: the response was half-maximal at 14 nM (EC50).
`O=C1S/C(=C\c2ccc3c(cnn3Cc3ccc(Cl)cc3C(F)(F)F)c2)C(=O)N1Cc1nccn1Cc1ncc[nH]1` [Compound 404, (5Z)-5-({1-[4-Chloro-2-(trifluoromethyl)benzyl]-1H-indazol-5-yl}methylidene)-3-{[1-(1H-imidazol-2-ylmethyl)-1H-imidazol-2-yl]methyl}-1,3-thiazolidine-2,4-dione]: the midpoint of the response, the EC50, lay at 21 nM. This EC50 is about 1.5-fold higher than that of the molecule before.
In the case of `COCCN1CCC[C@H]1CN1C(=O)S/C(=C\c2ccc3c(cnn3Cc3ccc(Cl)cc3C(F)(F)F)c2)C1=O` [Compound 152, (5Z)-5-({1-[4-Chloro-2-(trifluoromethyl)benzyl]-1H-indazol-5-yl}methylidene)-3-{[(2S)-1-(2-methoxyethyl)pyrrolidin-2-yl]methyl}-1,3-thiazolidine-2,4-dione] it was 27 nM; in that of `O=C1S/C(=C\c2ccc3c(cnn3Cc3ccc(Cl)cc3C(F)(F)F)c2)C(=O)N1C[C@@H]1CCCNC1` [Compound 95, (5Z)-5-({1-[4-Chloro-2-(trifluoromethyl)benzyl]-1H-indazol-5-yl}methylidene)-3-[(3R)-piperidin-3-ylmethyl]-1,3-thiazolidine-2,4-dione], 57 nM.
To `COC(=O)N1CCN(C(=O)CN2C(=O)S/C(=C\c3ccc4c(cnn4Cc4ccc(Cl)cc4C(F)(F)F)c3)C2=O)S1(=O)=O` [Compound 340, Methyl 5-{[(5Z)-5-({1-[4-chloro-2-(trifluoromethyl)benzyl]-1H-indazol-5-yl}methylidene)-2,4-dioxo-1,3-thiazolidin-3-yl]acetyl}-1,2,5-thiadiazolidine-2-carboxylate 1,1-dioxide] belongs 53 nM; to `N#Cc1ccc(Cn2ncc3cc(/C=C4\SC(=O)N(CC(=O)O)C4=O)ccc32)c(C(F)(F)F)c1` [Compound 346, [(5Z)-5-({1-[4-Cyano-2-(trifluoromethyl)benzyl]-1H-indazol-5-yl}methylidene)-2,4-dioxo-1,3-thiazolidin-3-yl]acetic acid], 579 nM.
In the case of `O=C1S/C(=C\c2ccc3c(cnn3Cc3ccc(Cl)cc3C(F)(F)F)c2)C(=O)N1C1(C(=O)O)CCCCC1` [Compound 218, 1-[(5Z)-5-({1-[4-Chloro-2-(trifluoromethyl)benzyl]-1H-indazol-5-yl}methylidene)-2,4-dioxo-1,3-thiazolidin-3-yl]cyclohexanecarboxylic acid] it was 88 nM; in that of `O=C(O)[C@H](CO)N1C(=O)S/C(=C\c2ccc3c(cnn3Cc3ccc(Cl)cc3C(F)(F)F)c2)C1=O` [Compound 221, (2S)-2-[(5Z)-5-({1-[4-Chloro-2-(trifluoromethyl)benzyl]-1H-indazol-5-yl}methylidene)-2,4-dioxo-1,3-thiazolidin-3-yl]-3-hydroxypropanoic acid], 61 nM.
Take `[2H]C([2H])([2H])N1CCC(F)(CN2C(=O)S/C(=C\c3ccc4c(cnn4Cc4ccc(Cl)cc4C(F)(F)F)c3)C2=O)CC1` [Compound 307, (5Z)-5-({1-[4-Chloro-2-(trifluoromethyl)benzyl]-1H-indazol-5-yl}methylidene)-3-{[4-fluoro-1-(^2H3)methylpiperidin-4-yl]methyl}-1,3-thiazolidine-2,4-dione]: the EC50 came out at 210 nM.
In the case of `N[C@H]1CC[C@H](CN2C(=O)S/C(=C\c3ccc4c(cnn4Cc4ccc(Cl)cc4C(F)(F)F)c3)C2=O)CC1` [Compound 284, (5Z)-3-[(trans-4-Aminocyclohexyl)methyl]-5-({1-[4-chloro-2-(trifluoromethyl)benzyl]-1H-indazol-5-yl}methylidene)-1,3-thiazolidine-2,4-dione] it was 129 nM; in that of `O=C1S/C(=C\c2ccc3c(c2)c(O)nn3Cc2ccc(Cl)cc2C(F)(F)F)C(=O)N1CCN1CCCC1` [Compound 37, (5Z)-5-({1-[4-Chloro-2-(trifluoromethyl)benzyl]-3-oxo-2,3-dihydro-1H-indazol-5-yl}methylidene)-3-(2-pyrrolidin-1-ylethyl)-1,3-thiazolidine-2,4-dione], 290 nM.
To `O=C1S/C(=C\c2ccc3c(cnn3Cc3ccc(Cl)cc3C(F)(F)F)c2)C(=O)N1C[C@@H]1CSCCN1` [Compound 98, (5Z)-5-({1-[4-Chloro-2-(trifluoromethyl)benzyl]-1H-indazol-5-yl}methylidene)-3-[(3R)-thiomorpholin-3-ylmethyl]-1,3-thiazolidine-2,4-dione] belongs 980 nM.
To `COCCN1CCN(N2C(=O)S/C(=C\c3ccc4c(cnn4Cc4ccc(Cl)cc4C(F)(F)F)c3)C2=O)CC1` [Compound 352, (5Z)-5-({1-[4-Chloro-2-(trifluoromethyl)benzyl]-1H-indazol-5-yl}methylidene)-3-[4-(2-methoxyethyl)piperazin-1-yl]-1,3-thiazolidine-2,4-dione] belongs 25 nM; to `O=C1S/C(=C\c2ccc3c(cnn3Cc3ccc(Cl)cc3C(F)(F)F)c2)C(=O)N1CCN1CCOCC1` [Compound 3, (5Z)-5-({1-[4-Chloro-2-(trifluoromethyl)benzyl]-1H-indazol-5-yl}methylidene)-3-(2-morpholin-4-ylethyl)-1,3-thiazolidine-2,4-dione], 43 nM; to `Nc1nc(CN2C(=O)S/C(=C\c3ccc4c(cnn4Cc4ccc(Cl)cc4C(F)(F)F)c3)C2=O)cs1` [Compound 400, (5Z)-3-[(2-Amino-1,3-thiazol-4-yl)methyl]-5-({1-[4-chloro-2-(trifluoromethyl)benzyl]-1H-indazol-5-yl}methylidene)-1,3-thiazolidine-2,4-dione], 62 nM.
The molecule `O=C1S/C(=C\c2ccc3c(cnn3Cc3ccc(Cl)cc3C(F)(F)F)c2)C(=O)N1[C@@H]1CNCC[C@H]1O` (relative stereo) [Compound 279, (5Z)-5-({1-[4-Chloro-2-(trifluoromethyl)-benzyl]-1H-indazol-5-yl}methylidene)-3-[trans-4-hydroxypiperidin-3-yl]-1,3-thiazolidine-2,4-dione] displayed an EC50 of 22 nM.
In the case of `Cc1nn(C)c(Cl)c1S(=O)(=O)NCCN1C(=O)S/C(=C\c2ccc3c(cnn3Cc3ccc(Cl)cc3C(F)(F)F)c2)C1=O` [Compound 418, 5-Chloro-N-{2-[(5Z)-5-({1-[4-chloro-2-(trifluoromethyl)benzyl]-1H-indazol-5-yl}methylidene)-2,4-dioxo-1,3-thiazolidin-3-yl]ethyl}-1,3-dimethyl-1H-pyrazole-4-sulfonamide] it was 83 nM.
For `CC1(C)OCC(CN2C(=O)S/C(=C\c3ccc4c(cnn4Cc4ccc(Cl)cc4C(F)(F)F)c3)C2=O)O1` (stereo not drawn) [Compound 42, (5Z)-5-({1-[4-Chloro-2-(trifluoromethyl)benzyl]-1H-indazol-5-yl}methylidene)-3-[(2,2-dimethyl-1,3-dioxolan-4-yl)methyl]-1,3-thiazolidine-2,4-dione], the midpoint of the response, the EC50, lay at 46 nM.
To `CN(CCO)CCN1C(=O)S/C(=C\c2ccc3c(cnn3Cc3ccc(Cl)cc3C(F)(F)F)c2)C1=O` [Compound 51, (5Z)-5-({1-[4-Chloro-2-(trifluoromethyl)benzyl]-1H-indazol-5-yl}methylidene)-3-{2-[(2-hydroxyethyl)(methyl)amino]ethyl}-1,3-thiazolidine-2,4-dione] belongs 26 nM; to `O=C1S/C(=C\c2ccc3c(c2)nnn3Cc2ccc(Cl)cc2C(F)(F)F)C(=O)N1C[C@H]1COCCN1` [Compound 267, (5Z)-5-({1-[4-Chloro-2-(trifluoromethyl)benzyl]-1H-benzotriazol-5-yl}methylidene)-3-[(3S)-morpholin-3-ylmethyl]-1,3-thiazolidine-2,4-dione], 11 nM.
On to `COCCN1C[C@H](O)C[C@H]1CN1C(=O)S/C(=C\c2ccc3c(cnn3Cc3ccc(Cl)cc3C(F)(F)F)c2)C1=O` [Compound 188, (5Z)-5-({1-[4-Chloro-2-(trifluoromethyl)benzyl]-1H-indazol-5-yl}methylidene)-3-{[(2S,4R)-4-hydroxy-1-(2-methoxyethyl)pyrrolidin-2-yl]methyl}-1,3-thiazolidine-2,4-dione], for which the concentration giving a half-maximal response (EC50) amounted to 60 nM.
Molecule `NC1(CN2C(=O)S/C(=C\c3ccc4c(cnn4Cc4ccc(Cl)cc4C(F)(F)F)c3)C2=O)CCC1` [Compound 314, (5Z)-3-[(1-Aminocyclobutyl)methyl]-5-({1-[4-chloro-2-(trifluoromethyl)benzyl]-1H-indazol-5-yl}methylidene)-1,3-thiazolidine-2,4-dione] gave a concentration giving a half-maximal response (EC50) of 830 nM.
As for `CS(=O)(=O)NN1C(=O)S/C(=C\c2ccc3c(c2)c(I)nn3Cc2ccc(Cl)cc2C(F)(F)F)C1=O` [Compound 367, N-[(5Z)-5-({1-[4-Chloro-2-(trifluoromethyl)benzyl]-3-iodo-1H-indazol-5-yl}methylidene)-2,4-dioxo-1,3-thiazolidin-3-yl]methanesulfonamide], the concentration giving a half-maximal response (EC50) is 4 nM.
Turning to `CC(C)N1C[C@@H](F)[C@H](N2C(=O)S/C(=C\c3ccc4c(cnn4Cc4ccc(Cl)cc4C(F)(F)F)c3)C2=O)C1` (relative stereo) [Compound 321, (5Z)-5-({1-[4-Chloro-2-(trifluoromethyl)benzyl]-1H-indazol-5-yl}methylidene)-3-[trans-4-fluoro-1-(1-methylethyl)pyrrolidin-3-yl]-1,3-thiazolidine-2,4-dione], the EC50 turned out to be 43 nM.
